Experimental data reported in paper PMC5913645, “Methyl phenlactonoates are efficient strigolactone analogs with simple structure” (Journal of Experimental Botany, 2017).
Entries after “also recorded” stand apart in the source; their conditions may differ.

Tests used:
[1] = test system: parasite seed; settings: ref Fukui et al., 2013; cited from earlier work
[2] = test system: S. hermonthica seeds; assay: Striga hermonthica seed germination bioassay; assay type: in vivo; settings: for EC50: Striga hermonthica, concentrations 10^–5 to 10^–12 M; for germination activity, order among the chlorophenyl compounds: species not given
Experimental: Parasitic weed seeds’ (S. hermonthica and P. ramosa) germination activity was studied as described previously ([Jamil et al., 2012]). Six pre-conditioned seed discs were placed in a 90 mm Petri dish containing a filter paper ring wetted with 0.9 ml sterile MilliQ water. Then 50 μl of SL analog solution (10^–5–10^–12 M) was applied on each of the six discs, for each concentration. GR24 solutions with equal concentrations and sterile MilliQ water were included as a positive and negative control, respectively. After application, seeds of S. hermonthica and P. ramosa were incubated in dark at 30 °C for 2 d and at 25 °C for 4 d, respectively. Germination (seeds with radicle emerging through the seed coat) was scored under a binocular microscope, and germination rate (%) was calculated. Statistical analyses were carried out using the statistical software package R (version 3.2.2). Dose–response curves and half-maximum effective concentrations (EC50) were calculated to determine optimum amount of MPs. The synthetic strigolactone analog GR24 was used as reference to estimate efficacy of selected compounds. EC50 and estimated response were calculated using the drc package (https://cran.r-project.org/web/packages/drc/) with a four parameter logistic curve (dose–response curve) ([Ritz and Streibig, 2005]).

[3] = test system: P. ramosa seeds; assay: P. ramosa seed germination bioassay; assay type: in vivo, Phelipanche ramosa; settings: 1.0 μM
Experimental: Parasitic weed seeds’ (S. hermonthica and P. ramosa) germination activity was studied as described previously ([Jamil et al., 2012]). Six pre-conditioned seed discs were placed in a 90 mm Petri dish containing a filter paper ring wetted with 0.9 ml sterile MilliQ water. Then 50 μl of SL analog solution (10^–5–10^–12 M) was applied on each of the six discs, for each concentration. GR24 solutions with equal concentrations and sterile MilliQ water were included as a positive and negative control, respectively. After application, seeds of S. hermonthica and P. ramosa were incubated in dark at 30 °C for 2 d and at 25 °C for 4 d, respectively. Germination (seeds with radicle emerging through the seed coat) was scored under a binocular microscope, and germination rate (%) was calculated.

[4] = test system: rice d10 mutant; assay: Rice micro tillering bioassay, d10 mutant; assay type: in vivo; settings: 2.5 μM
Experimental: Rice seeds (WT, d3, d10) were surface-sterilized by washing with 70% ethanol for 1 min and then with 2.5% sodium hypochlorite for 15 min. Seeds were then rinsed thoroughly with sterile MilliQ water and incubated in water for 2 d at 30 °C in the dark. Pre-germinated seeds were transferred to filter papers containing half-strength MS medium in 90 mm Petri dishes and incubated at 30 °C under fluorescent white light (130–180 μmol m^−2 s^−1) for 1 week. Seven-day-old seedlings were transferred to 50 ml falcon tubes (one seedling per tube) containing modified half-strength Hoagland nutrient solution and grown in greenhouse. Plants were treated with MPs at 2.5 μM to 2.5 × 10^–7 μM, using GR24 as positive control. The compounds were applied six times, twice a week. Number of tillers per plant, plant height and fresh biomass were measured at final harvest.
Statistical analyses were carried out using the statistical software package R (version 3.2.2). Dose–response curves and half-maximum effective concentrations (EC50) were calculated to determine optimum amount of MPs. The synthetic strigolactone analog GR24 was used as reference to estimate efficacy of selected compounds. EC50 and estimated response were calculated using the drc package (https://cran.r-project.org/web/packages/drc/) with a four parameter logistic curve (dose–response curve) ([Ritz and Streibig, 2005]).

[5] = Chemical stability in aqueous solution (UHPLC); assay type: physicochemical; settings: aqueous solution pH 6.8, 21 °C, 50 μg ml^−1, monitored at 24 h intervals up to 3 weeks
Experimental: Aqueous solutions of MPs (50 μg ml^−1; pH 6.8) were incubated at 21 °C in amber HPLC vials (adapted from [de Saint Germain et al., 2016]). For sample preparation, 50 μl of an acetone solution (1 mg ml^−1) was diluted to the final concentration with methanol (425 μl), water (500 μl) and 25 μl of 1-indanol (1.0 mg ml^−1 solution in acetone) as internal standard. […] Compounds eluted from the column were detected with a diode array detector. The relative quantity of remaining (non-degraded) product was determined by comparison with the internal standard. Stability was monitored at 24 h intervals up to 3 weeks.

[6] = test system: Arabidopsis seedlings; assay: Arabidopsis lateral root density; assay type: in vivo; settings: 1.0 μM, 8-day-old seedlings
Experimental: Sterilized Arabidopsis seeds were sown on half-strength MS (with 0.5% sucrose+1% agar, 0.5 g l^−1 MES, pH 5.7) plates supplemented with GR24 or MPs (at 1.0 μM). Plates were stored at 4 °C in darkness for 3 d and then vertically grown at 22 °C in a Percival incubator under long day condition (16 h at 22 °C/8 h at 16 °C day/night, 60% relative humidity, 60–70 μmol m^−2 s^−1 white light) for 8 d. For determining the effect on lateral root density and primary root length, at least 30 seedlings were measured using ImageJ software after scanning roots.

[7] = test system: Arabidopsis seedlings; assay: Arabidopsis hypocotyl elongation assay; assay type: in vivo; settings: 1.0 μM, continuous red light
Experimental: Sterilized Arabidopsis seeds were sown on half-strength MS (with 0.5% sucrose+1% agar, 0.5 g l^−1 MES, pH 5.7) plates supplemented with MPs or GR24 (at 1.0 μM). Plates were stored at 4 °C in darkness for 3 d. To initiate germination, plates were exposed to continuous white light for 24 h, then transferred to continuous monochromatic red light (20 μmol m^−2 s^−1, 22 °C) conditions for another 4 d. For hypocotyl length measurement, at least 30 seedlings were measured using the freely available ImageJ software (http://rsbweb.nih.gov/ij/) after taking digital photographs. A monochromatic red light source was applied as described previously ([Wu and Yang, 2010]). Light flow rates were measured using a Li250 quantum photometer (Li-Cor, Lincoln, NE, USA).

[8] = test system: P. ramosa seeds; set-up: method as in Wigchert et al., 1999; settings: ref Wigchert et al., 1999; cited from earlier work
[9] = test system: S. hermonthica seeds; settings: cited from earlier work
[10] = test system: Arabidopsis seedlings; set-up: method as in Jia et al. (2016); settings: ref Jia et al., 2016; cited from earlier work

In the case of `CC1=CC(Oc2ccc(Br)cc2)OC1=O` (centres unmarked) [4-Br-debranone], the “activity in inducing parasite seed germination” value [1] is listed as “moderate activity”.

For `COC(=O)/C(=C/OC1C=C(C)C(=O)O1)c1ccccc1[N+](=O)[O-]` (centres unmarked) [MP2], the EC50 [2] was 0.032 µM, the “P. ramosa germination activity” value [3] was “much higher activity” and the “growth, senescence symptoms and biomass of rice seedlings” value (from here on “growth, senescence symptoms and biomass”) [4] was “stunted the growth and caused senescence symptoms”. The “stability in comparison with GR24” value [5] was “more stable than GR24”.

In the case of `COC(=O)/C(=C/OC1C=C(C)C(=O)O1)c1ccc(C)cc1` (centres unmarked) [MP4], the “stability in comparison with GR24” value [5] is reported as “more stable than GR24”.

With `CC1=CC(O/C=C2/C(=O)OCc3ccccc32)OC1=O` (centres unmarked) [MP5] the “stability in comparison with GR24” value [5] was “more stable than GR24; also recorded: most stable compound”.

For `COC(=O)/C(=C/OC1C=C(C)C(=O)O1)c1cccc(F)c1` (centres unmarked) [MP6], the “growth, senescence symptoms and biomass” value [4] was “stunted the growth and caused senescence symptoms”.

In the case of `COC(=O)/C(=C/OC1C=C(C)C(=O)O1)c1cccc(Cl)c1` (centres unmarked) [MP8], the “germination activity, order among the chlorophenyl compounds” value [2] is reported as “highest germination activity with MP7 (Cl in para position) followed by MP9 (ortho position) and MP8 (meta position)”, the “P. ramosa germination activity” value [3] is reported as “much higher activity” and the “reduction of lateral root number/density” value [6] is reported as “slightly more active than GR24”. For the same compound, the “stability in comparison with GR24” value [5] was “very similar to that of GR24”.

In the case of `COC(=O)/C(=C/OC1C=C(C)C(=O)O1)c1ccccc1Cl` (centres unmarked) [MP9], the “germination activity, order among the chlorophenyl compounds” value [2] is reported as “highest germination activity with MP7 (Cl in para position) followed by MP9 (ortho position) and MP8 (meta position)”, the “growth, senescence symptoms and biomass” value [4] is reported as “stunted the growth and caused senescence symptoms” and the “stability in comparison with GR24” value [5] is reported as “very similar to that of GR24”.

With `COC(=O)/C(=C\OC1C=C(C)C(=O)O1)c1ccccc1Cl` (centres unmarked) [MP10] the “growth, senescence symptoms and biomass” value [4] was “stunted the growth and caused senescence symptoms” and the “stability in comparison with GR24” value [5] was “more stable than GR24”.

With `COC(=O)C(=COC1C=C(C)C(=O)O1)c1cccc2ccccc12` (centres unmarked) [MP11] the “S. hermonthica germination rate” value ([2]; 1.0 μM) was 32%, the EC50 [2] was 1.7 µM and the “stability in comparison with GR24” value [5] was “very similar to that of GR24”.

For `CC1=CC(O/C=C(/C=O)c2ccc([N+](=O)[O-])cc2)OC1=O` (centres unmarked) [MP12, (E)-3-(4-methyl-5-oxo-2,5-dihydrofuran-2-yloxy)-2-(4-nitrophenyl)acrylaldehyde], the “inhibition of hypocotyl growth” value [7] was “Apart from MP12 and MP15, all MPs showed significant inhibition” and the “stability in comparison with GR24” value [5] was “quite unstable and not detectable even after only 24 h”.

For `COC(=O)/C(=C/OC1C=C(C)C(=O)O1)c1ccc(OC)cc1` (centres unmarked) [MP14], the “stability in comparison with GR24” value [5] was “very similar to that of GR24”.

For `COC(=O)/C(=C/OC1C=C(C)C(=O)O1)c1ccc(O)cc1` (centres unmarked) [MP15], the “inhibition of hypocotyl growth” value [7] was “Apart from MP12 and MP15, all MPs showed significant inhibition” and the “stability in comparison with GR24” value [5] was “slightly less stable than GR24”.

In the case of `COC(=O)/C(=C/O[C@H]1C=C(C)C(=O)O1)N1C(=O)c2ccccc2C1=O` [Nijmegen-1], the “seed germination in P. ramosa” value [8] is listed as “potent inducer” and the “EC50 for S. hermonthica germination relative to GR24” value ([9]; ref Wigchert et al., 1999) is listed as “three orders of magnitude higher than GR24”.

For `CC1=CC(O/C=C(/C)c2ccc([N+](=O)[O-])cc2)OC1=O` (centres unmarked) [nitro-phenlactone], the “effect on lateral root density” value [10] is given as “did not affect lateral root density” and the “activity in stimulating S. hermonthica germination” value ([9]; ref Jia et al., 2016) is given as “very weak activity”.
